According to the supplement of paper PMC10307832:

Columns and labels:
Test in all cases: relative viability (nuclei count vs DMSO), 5 days (fraction); higher = more cells survive
EPLC-272H = test system: EPLC-272H
Summary of the method: (§1)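 Each reported value is a median over duplicate plates. It expresses relative viability: treated-well nuclei count divided by vehicle-well nuclei count. Lung cancer cell lines in 1536-well plates were dosed by pin tool a day after seeding, alone with one drug or with a fixed anchor-drug dose plus five library-drug doses (not always all listed) in √10 steps, and nuclei were counted after 5 days.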

NCI-H1915 = test system: NCI-H1915
Summary of the method: as §1

A-427 = test system: A-427
Summary of the method: as §1

SK-MES-1 = test system: SK-MES-1
Summary of the method: as §1

HOP-62 = test system: HOP-62
Summary of the method: as §1

NCI-H2087 = test system: NCI-H2087
Summary of the method: as §1

NCI-H661 = test system: NCI-H661
Summary of the method: as §1

LOU-NH91 = test system: LOU-NH91
Summary of the method: as §1

HCC-366 = test system: HCC-366
Summary of the method: as §1

EKVX = test system: EKVX
Summary of the method: as §1

HCC-78 = test system: HCC-78
Summary of the method: as §1

NCI-H2023 = test system: NCI-H2023
Summary of the method: as §1

NCI-H1650 = test system: NCI-H1650
Summary of the method: as §1

COR-L23 = test system: COR-L23
Summary of the method: as §1

NCI-H596 = test system: NCI-H596
Summary of the method: as §1

NCI-H650 = test system: NCI-H650
Summary of the method: as §1

NCI-H838 = test system: NCI-H838
Summary of the method: as §1

HCC-44 = test system: HCC-44
Summary of the method: as §1

NCI-H358 = test system: NCI-H358
Summary of the method: as §1

ChaGo-K-1 = test system: ChaGo-K-1
Summary of the method: as §1

NCI-H1734 = test system: NCI-H1734
Summary of the method: as §1

NCI-H1395 = test system: NCI-H1395
Summary of the method: as §1

NCI-H3122 = test system: NCI-H3122
Summary of the method: as §1

Cc1cnc(-c2cnc(NCCNc3ccc(C#N)cn3)nc2-c2ccc(Cl)cc2Cl)[nH]1 + O=C(c1cc(Cc2n[nH]c(=O)c3ccccc23)ccc1F)N1CCN(C(=O)C2CC2)CC1 [Olaparib] (partner 8 µM)
relative viability (EPLC-272H; first compound 0.08 µM): 0.731
relative viability (EPLC-272H; first compound 0.253 µM): 0.779
relative viability (EPLC-272H; first compound 0.8 µM): 0.739
relative viability (EPLC-272H; first compound 2.53 µM): 0.666
relative viability (NCI-H1915; first compound 0.08 µM): 0.253
relative viability (NCI-H1915; first compound 0.8 µM): 0.264
relative viability (NCI-H1915; first compound 2.53 µM): 0.239
relative viability (A-427; first compound 0.08 µM): 0.759
relative viability (A-427; first compound 0.253 µM): 0.711
relative viability (A-427; first compound 0.8 µM): 0.822
relative viability (A-427; first compound 2.53 µM): 0.743
relative viability (SK-MES-1; first compound 0.08 µM): 0.734
relative viability (SK-MES-1; first compound 0.253 µM): 0.704
relative viability (SK-MES-1; first compound 0.8 µM): 0.738
relative viability (SK-MES-1; first compound 2.53 µM): 0.762
relative viability (HOP-62; first compound 0.08 µM): 0.354
relative viability (HOP-62; first compound 0.253 µM): 0.362
relative viability (HOP-62; first compound 0.8 µM): 0.502
relative viability (HOP-62; first compound 2.53 µM): 0.324
relative viability (NCI-H2087; first compound 0.08 µM): 0.671
relative viability (NCI-H2087; first compound 0.8 µM): 0.635
relative viability (NCI-H2087; first compound 2.53 µM): 0.459
relative viability (NCI-H661; first compound 0.08 µM): 0.736
relative viability (NCI-H661; first compound 0.253 µM): 0.759
relative viability (NCI-H661; first compound 0.8 µM): 0.7
relative viability (NCI-H661; first compound 2.53 µM): 0.654
relative viability (LOU-NH91; first compound 0.08 µM): 0.94
relative viability (LOU-NH91; first compound 0.253 µM): 0.868
relative viability (LOU-NH91; first compound 0.8 µM): 0.962
relative viability (LOU-NH91; first compound 2.53 µM): 0.877
relative viability (HCC-366; first compound 0.08 µM): 0.375
relative viability (HCC-366; first compound 0.253 µM): 0.297
relative viability (HCC-366; first compound 0.8 µM): 0.338
relative viability (EKVX; first compound 0.08 µM): 0.939
relative viability (EKVX; first compound 0.253 µM): 0.814
relative viability (EKVX; first compound 0.8 µM): 0.715
relative viability (EKVX; first compound 2.53 µM): 0.85
relative viability (HCC-78; first compound 0.08 µM): 0.865
relative viability (HCC-78; first compound 0.253 µM): 0.588
relative viability (HCC-78; first compound 0.8 µM): 0.737
relative viability (HCC-78; first compound 2.53 µM): 0.834
relative viability (NCI-H2023; first compound 0.08 µM): 0.502
relative viability (NCI-H2023; first compound 0.253 µM): 0.51
relative viability (NCI-H2023; first compound 0.8 µM): 0.439
relative viability (NCI-H2023; first compound 2.53 µM): 0.36
relative viability (NCI-H1650; first compound 0.08 µM): 0.724
relative viability (NCI-H1650; first compound 0.253 µM): 0.737
relative viability (NCI-H1650; first compound 0.8 µM): 0.808
relative viability (NCI-H1650; first compound 2.53 µM): 0.868
relative viability (COR-L23; first compound 0.08 µM): 0.379
relative viability (COR-L23; first compound 0.253 µM): 0.314
relative viability (COR-L23; first compound 0.8 µM): 0.343
relative viability (COR-L23; first compound 2.53 µM): 0.261
relative viability (NCI-H596; first compound 0.08 µM): 1.09
relative viability (NCI-H596; first compound 0.253 µM): 0.736
relative viability (NCI-H596; first compound 0.8 µM): 0.775
relative viability (NCI-H596; first compound 2.53 µM): 0.724
relative viability (NCI-H650; first compound 0.08 µM): 0.41
relative viability (NCI-H650; first compound 0.253 µM): 0.36
relative viability (NCI-H650; first compound 0.8 µM): 0.479
relative viability (NCI-H650; first compound 2.53 µM): 0.393
relative viability (NCI-H838; first compound 0.08 µM): 0.756
relative viability (NCI-H838; first compound 0.253 µM): 0.768
relative viability (NCI-H838; first compound 0.8 µM): 0.796
relative viability (NCI-H838; first compound 2.53 µM): 0.75
relative viability (HCC-44; first compound 0.08 µM): 0.934
relative viability (HCC-44; first compound 0.253 µM): 0.946
relative viability (HCC-44; first compound 0.8 µM): 1.04
relative viability (HCC-44; first compound 2.53 µM): 0.989
relative viability (NCI-H358; first compound 0.08 µM): 0.578
relative viability (NCI-H358; first compound 0.253 µM): 0.522
relative viability (NCI-H358; first compound 0.8 µM): 0.555
relative viability (NCI-H358; first compound 2.53 µM): 0.517
relative viability (ChaGo-K-1; first compound 0.08 µM): 0.406
relative viability (ChaGo-K-1; first compound 0.253 µM): 0.361
relative viability (ChaGo-K-1; first compound 0.8 µM): 0.362
relative viability (ChaGo-K-1; first compound 2.53 µM): 0.322
relative viability (NCI-H1734; first compound 0.08 µM): 0.635
relative viability (NCI-H1734; first compound 0.253 µM): 0.622
relative viability (NCI-H1734; first compound 0.8 µM): 0.644
relative viability (NCI-H1734; first compound 2.53 µM): 0.516
relative viability (NCI-H1395; first compound 0.08 µM): 0.496
relative viability (NCI-H1395; first compound 0.253 µM): 0.435
relative viability (NCI-H1395; first compound 0.8 µM): 0.504
relative viability (NCI-H1395; first compound 2.53 µM): 0.47
relative viability (NCI-H3122; first compound 0.08 µM): 0.568
relative viability (NCI-H3122; first compound 0.8 µM): 0.651
relative viability (NCI-H3122; first compound 2.53 µM): 0.545
